The assay has as its system embryonic stages of S. digitata. The assay can be described thus: Intra cellular cleavage of caspase substrate PARP, anti cleaved PARP-PE staining. Conditions: 24 hr. The assay is classed as cell-based, Setaria digitata. The protocol:
Adult female filarial worms Setaria digitata were collected from the peritoneum of cattle, slaughtered at a nearby abattoir in sterile Hanks Balanced Salt Solution (HBSS) medium (Sigma H 2387-1L) and transported to the laboratory in a sterile container. The medium containing 1% glucose (Sigma G 7528), Penicillin 100 units/ml, Streptomycin 100 μg/ml (Sigma P 4333). And Amphotericin-B 0.25 μg/ml (Sigma A 2942) was buffered with NaHCO3 (Sigma S 5761). About 5 to 7 worms were taken in a petridish, washed three times in medium, dissected into small pieces in 10 ml of medium under sterile conditions and incubated at 37° C. for 30 minutes to allow the release of embryonic stages (eggs and microfilariae) into the medium. The embryonic stages were harvested into sterile 15 ml. centrifuge tubes and washed three times by centrifuging at 300 g for 10 minutes each with medium and the final pellet was suspended in 1 ml. of RPMI-1640 medium (Sigma R 8005) supplemented with 10% FBS (Sigma F 2442) The number of embryonic stages of S. digitata in the above preparation were counted using light microscope, and the suspension was taken in RPMI-1640 medium containing 10% FBS at 1×10^5 embryonic stages/ml. One ml. each was dispensed into individual wells of a 24 well tissue culture plate. One set of wells was taken as untreated control containing only medium with 10% FBS. […] Motility of the Mf was scored under an inverted microscope. After appropriate treatment and incubation, each set of the cultured embryonic stages of S. digitata were harvested from the 24 well tissue culture plate separately in 15 ml. sterile centrifuge tubes, washed with PBS twice and stained as per requirement following manufacturer's instructions as described below. This was followed by two times washing with PBS and final suspension of the stained embryonic stages was taken in 0.5 ml of sheath fluid (BD Biosciences 342003) before their acquisition in the flow cytometer (BD FACS Calibur, Becten and Dickinson, USA). Analysis was performed on 10,000-acquired events depicted as Dot Plots and Histogram Plots using Cellquest Pro soft ware. All plots were representative of at least 3 experiments. The distinctly clustered populations obtained consistently in the Dot plots for the intra uterine embryonic stages of S. digitata (FIG. 1 a) were gated for Mfs (R-1) and eggs (R-2 and R-3) and analyzed for different assays for apoptosis as described below. After in vitro culture for 24 hours with apoptosis inducing reagents the embryonic stages were harvested in 15 ml. sterile centrifuge tubes and fixed for 60 minutes at 0° C. in 1% paraformaldehyde (Sigma P 6148) in PBS. The suspension was washed first with PBS and then with 1× permeabilisation buffer (eBioscience 00-8333-56) and finally resuspended in 100 μl of 1× permeabilisation buffer at 1×10^5 embryonic stages per ml. This suspension was then incubated for 45 minutes with 20 μl of anti cleaved PARP-PE (BD Biosciences 552933). This was followed by washing with PBS twice and analysis by Flow cytometer.

The structures appear in SMILES notation. Several values for one entry are separate records, joined by “and”; a condition that tells them apart may be missing. Equal values may be shown once.

As to `OO` [H2O2], the “GMI (Geometric Mean Intensity) of Fluorescence, PARP Cleavage” value (from here on “GMI (Geometric Mean Intensity)”) is 70.72 and 75.32 and 78.52 (Eggs, 10 μM); 8.39 and 7.99 and 8.02 (Microfilariae, 10 μM).
Turning to `CN[C@@H]1C[C@H]2O[C@@](C)([C@@H]1OC)n1c3ccccc3c3c4c(c5c6ccccc6n2c5c31)C(=O)NC4` [Staurosporine], the “GMI (Geometric Mean Intensity)” value (Eggs, 1 μM) is 63.95 and 66.56 and 70.27; the “GMI (Geometric Mean Intensity)” value (Microfilariae, 1 μM) is 6.57 and 6.21 and 5.49.
As to `CC1=CC(=O)c2c(O)cccc2C1=O` [Plumbagin], the “GMI (Geometric Mean Intensity)” value by setting is: (Eggs, 10 μM) 102.15 and 109.36 and 110.25; (Microfilariae, 10 μM) 10.01 and 11.32 and 9.67.

For the origin of these results see patent US20110124523A1, “High Throughput Method for Detecting Apoptosis of Embryonic Stages of Metazoan Helminthic Parasites” (INSTITUTE OF LIFE SCIENCES, priority 2009, published 2011).
